System in the first data set: not listed separately
In words: Selectivity index, ratio of CC50 for […] to IC50 for JEV-SA14 infected in […]. The class given is toxicity, cell-based. The conditions noted are these: read-out: Ratio CC50/IC50.
Turning to `O=C(c1ccc(C(F)(F)F)cc1O)c1[nH]c(Cl)c(Cl)c1-n1c(C(=O)c2ccc(C(F)(F)F)cc2O)cc(Cl)c1Sc1nc2cccnc2[nH]1`, the selectivity ratio is 0.79.

System in the next data set: not listed separately
The data set can be described thus: Cytotoxicity against […] infected with DENV-NGC-1 incubated for 7 days by CellTiter 96 luminescent cell viability assay. The class given is toxicity, cell-based. The conditions noted are these: time 7 day.
In general, CC50 refers to the concentration at which the toxic effect on the cells reaches its halfway point. `O=C(c1ccc(C(F)(F)F)cc1O)c1[nH]c(Cl)c(Cl)c1-n1c(C(=O)c2ccc(C(F)(F)F)cc2O)cc(Cl)c1SCc1cccnc1` returned a CC50 at 168 h of 0.32 µM.

As for `O=C(c1ccc(C(F)(F)F)cc1O)c1[nH]c(Cl)c(Cl)c1-n1c(C(=O)c2ccc(C(F)(F)F)cc2O)cc(Cl)c1Sc1cccc[n+]1[O-]`, the CC50 at 168 h was 8.06 µM.

For the compound `O=C(c1ccc(C(F)(F)F)cc1O)c1[nH]c(Cl)c(Cl)c1-n1c(C(=O)c2ccc(C(F)(F)F)cc2O)cc(Cl)c1Sc1nc2cccnc2[nH]1`, the CC50 at 168 h was found to be 17.1 µM.

System in another data set: not listed separately
In words: Cytotoxicity against […] infected with ZIKV-SMGC-1 incubated for 7 days by CellTiter 96 luminescent cell viability assay. The class given is toxicity, cell-based. To be noted: time 7 day.
`O=C(c1ccc(C(F)(F)F)cc1O)c1[nH]c(Cl)c(Cl)c1-n1c(C(=O)c2ccc(C(F)(F)F)cc2O)cc(Cl)c1Sc1nc2cccnc2[nH]1` had a CC50 at 168 h of 1.8 µM.

System in a further data set: not listed separately
In words: Selectivity index, ratio of CC50 for […] to IC50 for ZIKV-SMGC-1 infected in […]. It counts as toxicity, cell-based. The conditions noted are these: read-out: Ratio CC50/IC50.
Take `O=C(c1ccc(C(F)(F)F)cc1O)c1[nH]c(Cl)c(Cl)c1-n1c(C(=O)c2ccc(C(F)(F)F)cc2O)cc(Cl)c1SCc1cccnc1`: the selectivity ratio was found to be 1.14.

With `O=C(c1ccc(C(F)(F)F)cc1O)c1[nH]c(Cl)c(Cl)c1-n1c(C(=O)c2ccc(C(F)(F)F)cc2O)cc(Cl)c1Sc1nc2cccnc2[nH]1`, the selectivity ratio turned out to be 0.54.

System in another data set: not listed separately
In words: Cytotoxicity against […] infected with JEV-SA14 incubated for 7 days by CellTiter 96 luminescent cell viability assay. The class given is toxicity, cell-based. To be noted: time 7 day.
On to `O=C(c1ccc(C(F)(F)F)cc1O)c1[nH]c(Cl)c(Cl)c1-n1c(C(=O)c2ccc(C(F)(F)F)cc2O)cc(Cl)c1Sc1nc2cccnc2[nH]1`, for which it took 19.2 µM to reach half-maximal cytotoxicity (CC50 at 168 h).

System in the next data set: not listed separately
The data set can be described thus: Selectivity index, ratio of CC50 for […] to IC50 for YFV-17D infected in […]. The class given is toxicity, cell-based. To be noted: read-out: Ratio CC50/IC50.
Take `O=C(c1ccc(C(F)(F)F)cc1O)c1[nH]c(Cl)c(Cl)c1-n1c(C(=O)c2ccc(C(F)(F)F)cc2O)cc(Cl)c1Sc1cccc[n+]1[O-]`: the selectivity ratio came out at 2.58.

As to `O=C(c1ccc(C(F)(F)F)cc1O)c1[nH]c(Cl)c(Cl)c1-n1c(C(=O)c2ccc(C(F)(F)F)cc2O)cc(Cl)c1Sc1nc2cccnc2[nH]1`, the selectivity ratio is 0.98.

System in another data set: not listed separately
The data set can be described thus: Selectivity index, ratio of CC50 for […] to IC50 for DENV-NGC infected in […]. To be noted: read-out: Ratio CC50/IC50. The class given is toxicity, cell-based.
Take `O=C(c1ccc(C(F)(F)F)cc1O)c1[nH]c(Cl)c(Cl)c1-n1c(C(=O)c2ccc(C(F)(F)F)cc2O)cc(Cl)c1SCc1cccnc1`: the selectivity ratio was found to be 1.33.

As for `O=C(c1ccc(C(F)(F)F)cc1O)c1[nH]c(Cl)c(Cl)c1-n1c(C(=O)c2ccc(C(F)(F)F)cc2O)cc(Cl)c1Sc1cccc[n+]1[O-]`, the selectivity ratio was 2.19.

`O=C(c1ccc(C(F)(F)F)cc1O)c1[nH]c(Cl)c(Cl)c1-n1c(C(=O)c2ccc(C(F)(F)F)cc2O)cc(Cl)c1Sc1nc2cccnc2[nH]1`: the selectivity ratio is 0.75.

For the next data set, the system named is Zika virus. In words: Antiviral activity against ZIKV-SMGC-1 infected in […] incubated for 7 days by CellTiter 96 luminescent cell viability assay. It counts as functional, organism-based. To be noted: SMGC-1, BHK, 168 h.
In general, IC50 refers to the concentration that gives 50% inhibition. As to `O=C(c1ccc(C(F)(F)F)cc1O)c1[nH]c(Cl)c(Cl)c1-n1c(C(=O)c2ccc(C(F)(F)F)cc2O)cc(Cl)c1SCc1cccnc1`, half-maximal inhibition (IC50) was put at 0.28 µM. In other words, the sub-micromolar range.

`O=C(c1ccc(C(F)(F)F)cc1O)c1[nH]c(Cl)c(Cl)c1-n1c(C(=O)c2ccc(C(F)(F)F)cc2O)cc(Cl)c1Sc1nc2cccnc2[nH]1` returned an IC50 of 31.4 µM.

System in the next data set: not listed separately
In words: Cytotoxicity against human RD cells infected with CA16 incubated for 3 days by CellTiter 96 luminescent cell viability assay. The class given is toxicity, cell-based. To be noted: time 3 day.
Regarding `O=C(c1ccc(C(F)(F)F)cc1O)c1[nH]c(Cl)c(Cl)c1-n1c(C(=O)c2ccc(C(F)(F)F)cc2O)cc(Cl)c1SCc1cccnc1`, it took 0.86 µM to reach half-maximal cytotoxicity (CC50 at 72 h). That is a sub-micromolar value.

In the case of `O=C(c1ccc(C(F)(F)F)cc1O)c1[nH]c(Cl)c(Cl)c1-n1c(C(=O)c2ccc(C(F)(F)F)cc2O)cc(Cl)c1Sc1cccc[n+]1[O-]`, the CC50 at 72 h turned out to be 8.51 µM.

`O=C(c1ccc(C(F)(F)F)cc1O)c1[nH]c(Cl)c(Cl)c1-n1c(C(=O)c2ccc(C(F)(F)F)cc2O)cc(Cl)c1Sc1nc2cccnc2[nH]1` showed a CC50 at 72 h of 19.9 µM.

The subject of another data set is Japanese encephalitis virus. In words: Antiviral activity against JEV-SA14 infected in […] incubated for 7 days by CellTiter 96 luminescent cell viability assay. It counts as functional, organism-based. To be noted: 168 h.
As to `O=C(c1ccc(C(F)(F)F)cc1O)c1[nH]c(Cl)c(Cl)c1-n1c(C(=O)c2ccc(C(F)(F)F)cc2O)cc(Cl)c1Sc1nc2cccnc2[nH]1`, half-maximal inhibition (IC50) was put at 24.4 µM. This counts as double-digit micromolar.

System in another data set: not listed separately
In words: Selectivity index, ratio of CC50 for human RD cells to IC50 for EV71 infected in human RD cells. It counts as toxicity, cell-based. The conditions noted are these: read-out: Ratio CC50/IC50.
In the case of `O=C(c1ccc(C(F)(F)F)cc1O)c1[nH]c(Cl)c(Cl)c1-n1c(C(=O)c2ccc(C(F)(F)F)cc2O)cc(Cl)c1SCc1cccnc1`, the selectivity ratio is 2.1.

The subject of a further data set is Coxsackievirus A16. In words: Antiviral activity against CA16 infected in human RD cells incubated for 3 days by CellTiter 96 luminescent cell viability assay. The class given is functional, organism-based. To be noted: Enterovirus A, 72 h.
Compound `O=C(c1ccc(C(F)(F)F)cc1O)c1[nH]c(Cl)c(Cl)c1-n1c(C(=O)c2ccc(C(F)(F)F)cc2O)cc(Cl)c1SCc1cccnc1` registered a concentration for half-maximal inhibition (IC50) of 0.1 µM.

Regarding `O=C(c1ccc(C(F)(F)F)cc1O)c1[nH]c(Cl)c(Cl)c1-n1c(C(=O)c2ccc(C(F)(F)F)cc2O)cc(Cl)c1Sc1cccc[n+]1[O-]`, the midpoint of inhibition, the IC50, lay at 1.07 µM.

As to `O=C(c1ccc(C(F)(F)F)cc1O)c1[nH]c(Cl)c(Cl)c1-n1c(C(=O)c2ccc(C(F)(F)F)cc2O)cc(Cl)c1Sc1nc2cccnc2[nH]1`, half-maximal inhibition (IC50) was put at 5.9 µM.

The test system of another data set is Enterovirus A71. The data set can be described thus: Antiviral activity against EV71 infected in human RD cells incubated for 3 days by CellTiter 96 luminescent cell viability assay. It counts as functional, organism-based. The conditions noted are these: Enterovirus A, 71, RD, 72 h.
On to `O=C(c1ccc(C(F)(F)F)cc1O)c1[nH]c(Cl)c(Cl)c1-n1c(C(=O)c2ccc(C(F)(F)F)cc2O)cc(Cl)c1SCc1cccnc1`, for which the midpoint of inhibition, the IC50, lay at 0.27 µM.

System in a further data set: not listed separately
In words: Cytotoxicity against […] infected with YFV-17D incubated for 7 days by CellTiter 96 luminescent cell viability assay. It counts as toxicity, cell-based. The conditions noted are these: time 7 day.
Compound `O=C(c1ccc(C(F)(F)F)cc1O)c1[nH]c(Cl)c(Cl)c1-n1c(C(=O)c2ccc(C(F)(F)F)cc2O)cc(Cl)c1Sc1cccc[n+]1[O-]` returned a CC50 at 168 h of 8.06 µM.

`O=C(c1ccc(C(F)(F)F)cc1O)c1[nH]c(Cl)c(Cl)c1-n1c(C(=O)c2ccc(C(F)(F)F)cc2O)cc(Cl)c1Sc1nc2cccnc2[nH]1` came in with a CC50 at 168 h of 19.3 µM.

System in the next data set: not listed separately
The data set can be described thus: Cytotoxicity against human RD cells infected with EV71 incubated for 3 days by CellTiter 96 luminescent cell viability assay. The conditions noted are these: time 3 day. It counts as toxicity, cell-based.
Consider `O=C(c1ccc(C(F)(F)F)cc1O)c1[nH]c(Cl)c(Cl)c1-n1c(C(=O)c2ccc(C(F)(F)F)cc2O)cc(Cl)c1SCc1cccnc1`, for which the CC50 at 72 h worked out at 0.57 µM. This counts as sub-micromolar.

A further data set deals with Dengue virus. In words: Antiviral activity against DENV-NGC-1 infected in […] incubated for 7 days by CellTiter 96 luminescent cell viability assay. It counts as functional, organism-based. The conditions noted are these: NGC-1, BHK, 168 h.
The compound `O=C(c1ccc(C(F)(F)F)cc1O)c1[nH]c(Cl)c(Cl)c1-n1c(C(=O)c2ccc(C(F)(F)F)cc2O)cc(Cl)c1SCc1cccnc1` displayed an IC50 of 0.24 µM.

With `O=C(c1ccc(C(F)(F)F)cc1O)c1[nH]c(Cl)c(Cl)c1-n1c(C(=O)c2ccc(C(F)(F)F)cc2O)cc(Cl)c1Sc1cccc[n+]1[O-]`, the IC50 is 3.68 µM. This IC50 lies about 15-fold higher than the previous one.

Regarding `O=C(c1ccc(C(F)(F)F)cc1O)c1[nH]c(Cl)c(Cl)c1-n1c(C(=O)c2ccc(C(F)(F)F)cc2O)cc(Cl)c1Sc1nc2cccnc2[nH]1`, the half-inhibitory concentration (IC50) was found to be 22.8 µM. This IC50 is about 6.2-fold higher than that of the compound before.

System in a further data set: not listed separately
In words: Selectivity index, ratio of CC50 for human RD cells to IC50 for CA16 infected in human RD cells. The class given is toxicity, cell-based. To be noted: read-out: Ratio CC50/IC50.
In the case of `O=C(c1ccc(C(F)(F)F)cc1O)c1[nH]c(Cl)c(Cl)c1-n1c(C(=O)c2ccc(C(F)(F)F)cc2O)cc(Cl)c1SCc1cccnc1`, the selectivity ratio came to 8.61.

On to `O=C(c1ccc(C(F)(F)F)cc1O)c1[nH]c(Cl)c(Cl)c1-n1c(C(=O)c2ccc(C(F)(F)F)cc2O)cc(Cl)c1Sc1cccc[n+]1[O-]`, for which the selectivity ratio worked out at 7.95.

Consider `O=C(c1ccc(C(F)(F)F)cc1O)c1[nH]c(Cl)c(Cl)c1-n1c(C(=O)c2ccc(C(F)(F)F)cc2O)cc(Cl)c1Sc1nc2cccnc2[nH]1`, for which the selectivity ratio turned out to be 3.37.

The test system of a further data set is Yellow fever virus. The data set can be described thus: Antiviral activity against YFV-17D infected in […] incubated for 7 days by CellTiter 96 luminescent cell viability assay. It counts as functional, organism-based. To be noted: 168 h.
Regarding `O=C(c1ccc(C(F)(F)F)cc1O)c1[nH]c(Cl)c(Cl)c1-n1c(C(=O)c2ccc(C(F)(F)F)cc2O)cc(Cl)c1Sc1cccc[n+]1[O-]`, inhibition was half-maximal at 3.13 µM (IC50).

In turn, `O=C(c1ccc(C(F)(F)F)cc1O)c1[nH]c(Cl)c(Cl)c1-n1c(C(=O)c2ccc(C(F)(F)F)cc2O)cc(Cl)c1Sc1nc2cccnc2[nH]1` yielded an IC50 of 19.7 µM.

The values above are taken from ChEMBL document CHEMBL5113415, “Synthesis of 10,10'-bis(trifluoromethyl) marinopyrrole A derivatives and evaluation of their antiviral activities in vitro” (Eur J Med Chem, 2022).
